Where a name gives a salt, the structure may show the parent alone.
These compounds were tested on mice (assay: phenyl-p-quinone writhing assay in mice (analgesia)). Conditions: Mus musculus, sc, 0.5 h, read-out: % Inhibition of Writhing.
Assay type: in vivo

Going from `c1cc2c3c(c1)nc(C1CCNCC1)n3CCC2` [2-(4-Piperidinyl)-5,6-dihydro-4H-imidazo[4,5,1-ij]quinoline fumarate] to `c1cc2c3c(c1)nc(N1CCNCC1)n3CCC2` [5,6-Dihydro-2-(1-piperazinyl)-4H-imidazo[4,5,1-ij]quinoline dihydrochloride], the inhibition in vivo at 20 mg/kg rises from 31% to 57%.

Same assay, conditions: Mus musculus, sc, 0.5 h; 20 mg/kg subcutaneous, 30 minutes before injection of phenylquinone; mice; read-out: % Inhibition of Writhing

Compared with `CC(=O)N1CCC(c2nc3cccc4c3n2CCC4)CC1` [1-Acetyl-4-[5,6-dihydro-4H-imidazo[4,5,1-ij]quinolin-2-yl]piperidine], `CN(C)C1CCN(c2nc3cccc4c3n2CCC4)CC1` [5,6-Dihydro-2-(4-dimethylamino-1-piperidinyl)-4H-imidazo[4,5,1-ij]quinolinefumarate] is lower in inhibition in vivo at 20 mg/kg: 51% for the first, 48% for the second.

Going from `Fc1ccc(C(CCCN2CCN(c3nc4cccc5c4n3CCC5)CC2)c2ccc(F)cc2)cc1` [4-[4,4-Bis(4-fluorophenyl)-butyl]-1-piperazinyl-5,6-dihydro-4H-imidazo[4,5,1-ij]quinoline] to `c1ccc(CCN2CCN(c3nc4cccc5c4n3CCC5)CC2)cc1` [5,6-Dihydro-2-(4-phenylethyl-1-piperazinyl)-4H-imidazo[4,5,1-ij]quinoline], the inhibition in vivo at 20 mg/kg rises from 43% to 45%.

First: c1cc2c3c(c1)nc(N1CCCCC1)n3CCC2 [5,6-Dihydro-2-(1-piperidinyl)-4H-imidazo[4,5.1-ij]quinoline hydrochloride]
Second: c1cc2c3c(c1)nc(N1CCSCC1)n3CCC2 [5,6-Dihydro-2-(4-thiomorpholinyl)-4H-imidazo[4,5,1-ij]quinoline hydrochloride]
The inhibition in vivo at 20 mg/kg of the first is higher: 68% for the first, 53% for the second.

Work on `CCOC(=O)N1CCN(c2nc3cccc4c3n2CCC4)CC1` [Ethyl-4-[5,6-dihydro-4H-imidazo[4,5,1-ij]quinolin-2-yl]-1-piperazinecarboxylate fumarate] yielded an inhibition in vivo at 20 mg/kg of 47%.

Same assay, conditions: Mus musculus, sc, read-out: % Inhibition of Writhing

`CCC(=O)O[C@](Cc1ccccc1)(c1ccccc1)[C@H](C)CN(C)C` [propoxyphene, reference compound] showed an inhibition in vivo at 5 mg/kg of 19%.

Reference: patent publication US5500423A, “5,6-dihydro-4H-imidazo[4,5,1-ij]quinolines” (Hoechst-Roussel Pharmaceuticals Inc., priority 1994, dated 1996)
